This note sets out measurements from patent publication US20260102407A1, “TREATMENT METHODS” (priority 2020, published 2026).

The series is described as follows: GLP ocular pharmacokinetics study, single intravitreal injection. The note with it: rabbit, eye, other: intravitreal injection; rabbits; single intravitreal injection 10 μg/50 μl; read-out: ocular half-life (t1/2) (converted). It counts as in vivo.

On to `CCOC(=O)Nc1ccc2c(c1)C(=O)N(CC)c1ccccc1O2` [BT2, (10-ethyl-11-oxo-10,11-dihydro-dibenzo[b,f][1,4]oxazepin-2-yl)-carbamic acid ethyl ester], for which the half-life was 79.2 h.
